# Results: PubChem BioAssay AID248 (DTP/NCI, 2004)
# “And” between values parts separate entries of the source, which are not always exact repeats. Identical values can stand only once. Inconclusive results and toxic doses are left out.
# System: L1210 leukemia ip in BDF1 mice, survival T/C
# Experiment: NCI In Vivo Anticancer Drug Screen. Data for tumor model L1210 Leukemia (intraperitoneal) in B6D2F1 (BDF1) mice
# Details: higher = longer survival
# Method in brief: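 In this screen, tumor-bearing mice given compound are compared to those given vehicle, and their survival values are reported as a treated-to-control quotient.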
structure (smiles),measurement,setting,value
COC(=O)C[C@](O)(CCCC(C)(C)O)C(=O)O[C@@H]1C(OC)=C[C@]23CCCN2CCc2cc4c(cc2[C@H]13)OCO4,T/C,"endpoint: mean survival time, dose: 0.06 mg/kg/injection, schedule: Q01DX009 (ip), vehicle: water",110 % of control
same,T/C,"endpoint: mean survival time, dose: 0.13 mg/kg/injection, schedule: Q01DX009 (ip), vehicle: water",111 % of control
same,T/C,"endpoint: mean survival time, dose: 0.25 mg/kg/injection, schedule: Q01DX009 (ip), vehicle: acid diluted with saline",113 % of control
same,T/C,"endpoint: mean survival time, dose: 0.25 mg/kg/injection, schedule: Q01DX009 (ip), vehicle: water",113 % of control and 123 % of control (2×)
same,T/C,"endpoint: mean survival time, dose: 0.25 mg/kg/injection, schedule: Q03HX008 (ip), vehicle: acid diluted with saline",114 % of control
same,T/C,"endpoint: mean survival time, dose: 0.25 mg/kg/injection, schedule: Q03HX016 (ip), vehicle: acid diluted with saline",108 % of control
same,T/C,"endpoint: mean survival time, dose: 0.5 mg/kg/injection, schedule: Q01DX006 (iv), vehicle: acid diluted with saline",111 % of control
same,T/C,"endpoint: mean survival time, dose: 0.5 mg/kg/injection, schedule: Q01DX009 (ip), vehicle: acid diluted with saline",120 % of control
same,T/C,"endpoint: mean survival time, dose: 0.5 mg/kg/injection, schedule: Q01DX009 (oral), vehicle: acid diluted with saline",105 % of control
same,T/C,"endpoint: mean survival time, dose: 0.5 mg/kg/injection, schedule: Q01DX009 (oral), vehicle: saline",103 % of control
same,T/C,"endpoint: mean survival time, dose: 0.5 mg/kg/injection, schedule: Q01DX009 (sc), vehicle: acid diluted with saline",100 % of control
same,T/C,"endpoint: mean survival time, dose: 0.5 mg/kg/injection, schedule: Q01DX009 (sc), vehicle: saline",112 % of control
same,T/C,"endpoint: mean survival time, dose: 0.5 mg/kg/injection, schedule: Q03HX008 (ip), vehicle: acid diluted with saline",120 % of control
same,T/C,"endpoint: mean survival time, dose: 0.5 mg/kg/injection, schedule: Q03HX016 (ip), vehicle: acid diluted with saline",117 % of control
same,T/C,"endpoint: mean survival time, dose: 1.0 mg/kg/injection, schedule: Q01DX006 (iv), vehicle: acid diluted with saline",116 % of control
same,T/C,"endpoint: mean survival time, dose: 1.0 mg/kg/injection, schedule: Q01DX009 (oral), vehicle: acid diluted with saline",107 % of control
same,T/C,"endpoint: mean survival time, dose: 1.0 mg/kg/injection, schedule: Q01DX009 (oral), vehicle: saline",108 % of control
same,T/C,"endpoint: mean survival time, dose: 1.0 mg/kg/injection, schedule: Q01DX009 (sc), vehicle: acid diluted with saline",117 % of control
same,T/C,"endpoint: mean survival time, dose: 1.0 mg/kg/injection, schedule: Q01DX009 (sc), vehicle: saline",124 % of control
same,T/C,"endpoint: mean survival time, dose: 1.0 mg/kg/injection, schedule: Q03HX008 (ip), vehicle: acid diluted with saline",120 % of control
same,T/C,"endpoint: mean survival time, dose: 1.0 mg/kg/injection, schedule: Q03HX016 (ip), vehicle: acid diluted with saline",119 % of control
same,T/C,"endpoint: mean survival time, dose: 1.0 mg/kg/injection, schedule: Q04DX003 (ip), vehicle: acid diluted with saline",110 % of control
same,T/C,"endpoint: mean survival time, dose: 2.0 mg/kg/injection, schedule: Q01DX001 (ip), vehicle: acid diluted with saline",111 % of control
same,T/C,"endpoint: mean survival time, dose: 2.0 mg/kg/injection, schedule: Q01DX001 (iv), vehicle: acid diluted with saline",113 % of control
same,T/C,"endpoint: mean survival time, dose: 2.0 mg/kg/injection, schedule: Q01DX001 (oral), vehicle: acid diluted with saline",105 % of control
same,T/C,"endpoint: mean survival time, dose: 2.0 mg/kg/injection, schedule: Q01DX001 (sc), vehicle: acid diluted with saline",109 % of control
same,T/C,"endpoint: mean survival time, dose: 2.0 mg/kg/injection, schedule: Q01DX006 (iv), vehicle: acid diluted with saline",116 % of control
same,T/C,"endpoint: mean survival time, dose: 2.0 mg/kg/injection, schedule: Q01DX009 (ip), vehicle: acid diluted with saline",150 % of control
same,T/C,"endpoint: mean survival time, dose: 2.0 mg/kg/injection, schedule: Q01DX009 (oral), vehicle: acid diluted with saline",117 % of control
same,T/C,"endpoint: mean survival time, dose: 2.0 mg/kg/injection, schedule: Q01DX009 (oral), vehicle: saline",120 % of control
same,T/C,"endpoint: mean survival time, dose: 2.0 mg/kg/injection, schedule: Q01DX009 (sc), vehicle: saline",116 % of control
same,T/C,"endpoint: mean survival time, dose: 2.0 mg/kg/injection, schedule: Q08DX002 (ip), vehicle: acid diluted with saline",107 % of control
same,T/C,"endpoint: mean survival time, dose: 4.0 mg/kg/injection, schedule: Q01DX001 (ip), vehicle: acid diluted with saline",114 % of control
same,T/C,"endpoint: mean survival time, dose: 4.0 mg/kg/injection, schedule: Q01DX001 (iv), vehicle: acid diluted with saline",109 % of control
same,T/C,"endpoint: mean survival time, dose: 4.0 mg/kg/injection, schedule: Q01DX001 (oral), vehicle: acid diluted with saline",109 % of control
same,T/C,"endpoint: mean survival time, dose: 4.0 mg/kg/injection, schedule: Q01DX001 (sc), vehicle: acid diluted with saline",109 % of control
same,T/C,"endpoint: mean survival time, dose: 4.0 mg/kg/injection, schedule: Q01DX006 (iv), vehicle: acid diluted with saline",122 % of control
same,T/C,"endpoint: mean survival time, dose: 4.0 mg/kg/injection, schedule: Q01DX009 (ip), vehicle: acid diluted with saline",86 % of control
same,T/C,"endpoint: mean survival time, dose: 4.0 mg/kg/injection, schedule: Q01DX009 (oral), vehicle: acid diluted with saline",123 % of control
same,T/C,"endpoint: mean survival time, dose: 4.0 mg/kg/injection, schedule: Q01DX009 (sc), vehicle: acid diluted with saline",111 % of control
same,T/C,"endpoint: mean survival time, dose: 4.0 mg/kg/injection, schedule: Q04DX003 (ip), vehicle: acid diluted with saline",119 % of control
same,T/C,"endpoint: mean survival time, dose: 4.0 mg/kg/injection, schedule: Q08DX002 (ip), vehicle: acid diluted with saline",109 % of control
same,T/C,"endpoint: mean survival time, dose: 8.0 mg/kg/injection, schedule: Q01DX001 (iv), vehicle: acid diluted with saline",114 % of control
same,T/C,"endpoint: mean survival time, dose: 8.0 mg/kg/injection, schedule: Q04DX003 (ip), vehicle: acid diluted with saline",102 % of control
same,T/C,"endpoint: mean survival time, dose: 125.0 micrograms/kg/injection, schedule: Q03HX024 (ip), vehicle: acid diluted with saline",119 % of control
same,T/C,"endpoint: mean survival time, dose: 1000.0 micrograms/kg/injection, schedule: Q03HX024 (ip), vehicle: acid diluted with saline",89 % of control
same,T/C,"endpoint: median survival time, dose: 1.0 mg/kg/injection, schedule: Q04DX003 (ip), vehicle: saline",110 % of control
same,T/C,"endpoint: median survival time, dose: 2.0 mg/kg/injection, schedule: Q04DX003 (ip), vehicle: saline",113 % of control
same,T/C,"endpoint: median survival time, dose: 4.0 mg/kg/injection, schedule: Q04DX003 (ip), vehicle: saline",100 % of control
C[n+]1cccc2cc(NC(=O)c3ccc(C(=O)Nc4ccc5c(ccc[n+]5C)c4)cc3)ccc21,T/C,"endpoint: mean survival time, dose: 0.94 mg/kg/injection, schedule: Q01DX Z (ip), vehicle: saline",94 % of control
same,T/C,"endpoint: mean survival time, dose: 1.88 mg/kg/injection, schedule: Q01DX Z (ip), vehicle: saline",92 % of control
same,T/C,"endpoint: mean survival time, dose: 30.0 mg/kg/injection, schedule: Q01DX010 (oral), vehicle: saline",100 % of control
same,T/C,"endpoint: mean survival time, dose: 240.0 mg/kg/injection, schedule: Q01DX010 (oral), vehicle: saline",100 % of control
CCN1c2ccccc2Sc2ccccc21,T/C,"endpoint: mean survival time, dose: 50.0 mg/kg/injection, schedule: Q01DX001 (ip), vehicle: carboxymethylcellulose (CMC)",98 % of control
same,T/C,"endpoint: mean survival time, dose: 100.0 mg/kg/injection, schedule: Q01DX001 (ip), vehicle: carboxymethylcellulose (CMC)",98 % of control
same,T/C,"endpoint: mean survival time, dose: 100.0 mg/kg/injection, schedule: Q04DX003 (ip), vehicle: saline with Tween-80",92 % of control
same,T/C,"endpoint: mean survival time, dose: 200.0 mg/kg/injection, schedule: Q01DX001 (ip), vehicle: carboxymethylcellulose (CMC)",102 % of control
same,T/C,"endpoint: mean survival time, dose: 200.0 mg/kg/injection, schedule: Q04DX003 (ip), vehicle: saline with Tween-80",97 % of control
same,T/C,"endpoint: mean survival time, dose: 400.0 mg/kg/injection, schedule: Q01DX001 (ip), vehicle: carboxymethylcellulose (CMC)",98 % of control
same,T/C,"endpoint: mean survival time, dose: 400.0 mg/kg/injection, schedule: Q04DX003 (ip), vehicle: saline with Tween-80",100 % of control
CCCCCCCCCCCCN=C(N)N/C(N)=N/S(=O)(=O)c1ccc(OCCCCC)cc1,T/C,"endpoint: mean survival time, dose: 100.0 mg/kg/injection, schedule: Q04DX002 (ip), vehicle: Klucel (hydroxypropylcellulose) (HPC)",100 % of control
same,T/C,"endpoint: mean survival time, dose: 200.0 mg/kg/injection, schedule: Q04DX002 (ip), vehicle: Klucel (hydroxypropylcellulose) (HPC)",95 % of control
same,T/C,"endpoint: mean survival time, dose: 400.0 mg/kg/injection, schedule: Q04DX002 (ip), vehicle: Klucel (hydroxypropylcellulose) (HPC)",95 % of control
O=C(COc1ccc(Cl)cc1)Nc1cccc([N+](=O)[O-])c1,T/C,"endpoint: mean survival time, dose: 100.0 mg/kg/injection, schedule: Q01DX009 (ip), vehicle: saline with Tween-80",96 % of control
same,T/C,"endpoint: mean survival time, dose: 200.0 mg/kg/injection, schedule: Q01DX009 (ip), vehicle: saline with Tween-80",92 % of control
same,T/C,"endpoint: mean survival time, dose: 400.0 mg/kg/injection, schedule: Q01DX009 (ip), vehicle: saline with Tween-80",90 % of control
CC/C(=C(/Cl)c1ccccc1)c1ccccc1,T/C,"endpoint: mean survival time, dose: 100.0 mg/kg/injection, schedule: Q01DX001 (ip), vehicle: Klucel (hydroxypropylcellulose) (HPC)",98 % of control
same,T/C,"endpoint: mean survival time, dose: 200.0 mg/kg/injection, schedule: Q01DX001 (ip), vehicle: Klucel (hydroxypropylcellulose) (HPC)",102 % of control
same,T/C,"endpoint: mean survival time, dose: 400.0 mg/kg/injection, schedule: Q01DX001 (ip), vehicle: Klucel (hydroxypropylcellulose) (HPC)",100 % of control
C/C(=C1\SC(=S)N(C2OC(CO)C(O)C(O)C2O)C1=O)c1ccco1 (configuration not stated),T/C,"endpoint: mean survival time, dose: 12.5 mg/kg/injection, schedule: Q01DX005 (ip), vehicle: water",109 % of control
same,T/C,"endpoint: mean survival time, dose: 25.0 mg/kg/injection, schedule: Q01DX005 (ip), vehicle: water",95 % of control
same,T/C,"endpoint: mean survival time, dose: 50.0 mg/kg/injection, schedule: Q01DX005 (ip), vehicle: water",111 % of control
same,T/C,"endpoint: mean survival time, dose: 100.0 mg/kg/injection, schedule: Q01DX005 (ip), vehicle: water",98 % of control
same,T/C,"endpoint: mean survival time, dose: 200.0 mg/kg/injection, schedule: Q01DX005 (ip), vehicle: water",93 % of control
O=P(O)(c1cc(Cl)cc(Cl)c1)c1cc(Cl)cc(Cl)c1,T/C,"endpoint: mean survival time, dose: 18.8 mg/kg/injection, schedule: Q01DX001 (ip), vehicle: saline",96 % of control
same,T/C,"endpoint: mean survival time, dose: 37.5 mg/kg/injection, schedule: Q01DX001 (ip), vehicle: saline",96 % of control
same,T/C,"endpoint: mean survival time, dose: 75.0 mg/kg/injection, schedule: Q01DX001 (ip), vehicle: saline",96 % of control
